# Results as given in patent US20140161917A1, “Use of Nesprin-2 Expression Modulators and Compositions Thereof” (Avon Products, Inc., priority 2012, published 2014).
# Test system: Nesprin-2 (SYNE2)
# Experiment: Assay for upregulation of Nesprin-2 mRNA (Panomics Quantigene multiplex branched DNA assay) in fibroblasts
# Assay type: cell-based, human
# Details: 24 hours, vs vehicle control
# Procedure: A variety of botanical extract and synthetic compounds were tested for the ability to up-regulate […]-2 (SYNE2), Gene Accession Number-NM-182914.2. Normal human dermal fibroblasts or keratinocytes were cultured in 96-well tissue culture treated plates, containing appropriate culture medium. Stock solutions of actives were made in an appropriate vehicle (water/Ethanol/DMSO). Cells were treated with test material or respective vehicle control diluted in growth medium for 24 hours in a humidified 37° C. incubator with 10% CO2. The concentrations of each extract are provided based on the dry weight of the given plant extract, by which is meant the weight of the extract after volatile extraction solvents have been removed. After incubation, growth medium from each plate was removed and 100 μL of lysis buffer was added to the wells and placed in 37° C. incubator with 10% CO2 for 30 minutes. At the end of incubation, the cells are collected in freezer plates and placed in -80° C. freezer, until analysis. Changes in mRNA for after treatment were analysed using Panomics Quantigene multiplex assay that employs a branched DNA technology, following manufacturer's instructions (Affymetrix, CA). Percent increase (up-regulation) in mRNA for the […]-2 was calculated by comparing the test results to the control.
compound,measurement,setting,value
C[C@@H]1NC(=O)N[C@@H]1CCCCCC(=O)O [D-Desthiobiotin],"Nesprin-2 (percent up-regulation in mRNA, scaled score)",0.0001%,"++++ (0.001%, (>80 (++++))"
same,"Nesprin-2 (percent up-regulation in mRNA, scaled score)",0.001%,"++++ (0.001%, (>80 (++++))"
